Like-named read-outs stand apart in the source and are kept apart here.
Experiments:
[1] = system: Jurkat HIV-luciferase clones; assay: Jurkat latency reversal assay; format: cell-based; details: Homo sapiens, 48 h; Jurkat latency reversal assay potency; read-out: Jurkat pEC50 (converted)
Summary of the method: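 A 1:1:1 mix of three Jurkat clones (C16, 115, N6) carrying integrated luciferase-expressing HIV proviruses, 5,000 cells/well, was exposed to 3-fold, 14-point compound titrations from 10 μM at 0.5% DMSO for 48 h at 37° C. Steady-Glo luminescence was fitted by four-parameter logistic regression to give EC50 and maximal percent activation relative to vehicle.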

XIAP-BIR2 = XIAP-BIR2 (Homo sapiens (Human), UniProt P98170); assay: BIR binding assay (FRET competition), XIAP BIR2; details: read-out: XIAP BIR2 (pIC50) (converted)
Summary of the method: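 Compounds in a 15-point, 3-fold series competed with an AlexaFluor647 SMAC peptide (AVPIAQKSE, 200 nM) for 200 nM His-tagged XIAP-BIR2 over 60 min in pH 7.4 HEPES/CHAPS/DTT buffer. Eu-W1024 (2 nM) was then added for 30 min. IC50 and pIC50 were derived from the 615 nm/665 nm emission ratio by variable-slope fit.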

XIAP-BIR3 = XIAP-BIR3 (Homo sapiens (Human), UniProt P98170); assay: BIR binding assay (FRET competition), XIAP BIR3; details: for XIAP BIR3 vs BIR2 separation window: fold separation (FS) for XIAP
Summary of the method: (§1)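 Each domain is run separately at its own level: 50 nM cIAP1-BIR3, 100 nM XIAP-BIR3, 325 nM for cIAP1-BIR2 or cIAP2-BIR2. Probe is a 200 nM fluorescent SMAC peptide, and the value is IC50 from FRET competition.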

cIAP2-BIR2 = cIAP2-BIR2 (Homo sapiens (Human), UniProt Q13489); assay: BIR binding assay (FRET competition), cIAP2 BIR2
Summary of the method: as §1

cIAP1-BIR2 = cIAP1-BIR2 (Homo sapiens (Human), UniProt Q13490); assay: BIR binding assay (FRET competition), cIAP1 BIR2
Summary of the method: as §1

cIAP1-BIR3 = cIAP1-BIR3 (Homo sapiens (Human), UniProt Q13490); assay: BIR binding assay (FRET competition), cIAP1 BIR3; details: for cIAP1 BIR3 vs BIR2 separation window: fold separation (FS) for cIAP1
Summary of the method: as §1

cIAP2-BIR3 = cIAP2-BIR3 (Homo sapiens (Human), UniProt Q13489); assay: BIR binding assay (FRET competition), cIAP2 BIR3; details: for cIAP2 BIR3 vs BIR2 separation window: fold separation (FS) for cIAP2
Sequence of cIAP2-BIR3 (Q13489 238-349): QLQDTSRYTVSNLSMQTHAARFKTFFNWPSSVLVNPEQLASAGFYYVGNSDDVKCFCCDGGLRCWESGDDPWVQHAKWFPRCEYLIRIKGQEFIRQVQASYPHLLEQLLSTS

Sequence of cIAP1-BIR3 (Q13490 253-363): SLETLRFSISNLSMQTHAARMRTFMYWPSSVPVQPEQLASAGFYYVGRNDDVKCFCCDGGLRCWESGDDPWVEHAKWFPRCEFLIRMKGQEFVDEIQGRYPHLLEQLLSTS
Sequence of cIAP1-BIR2 (Q13490 173-257): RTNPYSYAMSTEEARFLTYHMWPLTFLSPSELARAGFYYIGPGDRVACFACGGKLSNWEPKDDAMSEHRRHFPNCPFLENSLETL
Sequence of XIAP-BIR2 (P98170 124-240): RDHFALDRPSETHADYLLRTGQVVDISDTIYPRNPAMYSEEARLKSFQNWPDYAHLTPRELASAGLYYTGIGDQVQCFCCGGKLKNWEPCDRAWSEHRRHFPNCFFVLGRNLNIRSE
Sequence of XIAP-BIR3 (P98170 241-356): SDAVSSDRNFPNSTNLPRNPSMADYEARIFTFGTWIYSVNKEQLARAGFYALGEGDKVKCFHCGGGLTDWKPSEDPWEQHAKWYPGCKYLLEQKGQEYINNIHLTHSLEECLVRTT
Sequence of cIAP2-BIR2 (Q13489 158-242): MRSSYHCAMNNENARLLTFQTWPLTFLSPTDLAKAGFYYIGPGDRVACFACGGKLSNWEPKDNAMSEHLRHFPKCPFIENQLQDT

| SMILES | EC50 [1] | IC50 (XIAP-BIR2; FRET competition) | IC50 (XIAP-BIR3) | XIAP BIR3 vs BIR2 separation window (XIAP-BIR3) | IC50 (cIAP2-BIR2) | IC50 (cIAP1-BIR2) | IC50 (cIAP1-BIR3) | cIAP1 BIR3 vs BIR2 separation window (cIAP1-BIR3) | IC50 (cIAP2-BIR3) | cIAP2 BIR3 vs BIR2 separation window (cIAP2-BIR3) | IC50 (XIAP-BIR2; FRET competition binding) |
| --- | --- | --- | --- | --- | --- | --- | --- | --- | --- | --- | --- |
| C[C@@H]1CN(CC(=O)N2CC(C)(C)c3[nH]c(=O)c(Cc4ccc(F)cc4)cc32)[C@@H](CN2CCO[C@H](C(=O)NCCCN(C)C(=O)[C@@H]3CN(C[C@H]4CN[C@H](C)CN4CC(=O)N4CC(C)(C)c5[nH]c(=O)c(Cc6ccc(F)cc6)cc54)CCO3)C2)CN1 [Compound 135, (S)-4-(((2R,5R)-1-(2-(6-(4-fluorobenzyl)-3,3-dimethyl-5-oxo-2,3,4,5-tetrahydro-1H-pyrrolo[3,2-b]pyridin-1-yl)-2-oxoethyl)-5-methylpiperazin-2-yl)methyl)-N-(3-((S)-4-(((2R,5R)-1-(2-(6-(4-fluorobenzyl)-3,3-dimethyl-5-oxo-2,3,4,5-tetrahydro-1H-pyrrolo[3,2-b]pyridin-1-yl)-2-oxoethyl)-5-methylpiperazin-2-yl)methyl)morpholine-2-carboxamido)propyl)-N-methylmorpholine-2-carboxamide] | 63.1 to 316 nM | 10000 to 51300 nM | 15.8 to 31.6 nM | ++++ (FS>10,000) | 3160 to 10000 nM | 3160 to 10000 nM | 15.8 to 31.6 nM | +++ (10,000>FS>1,000) | 7.94 to 15.8 nM | +++ (10,000>FS>1,000) | – |
| C[C@@H]1CN(CC(=O)N2CC(C)(C)c3[nH]c(=O)c(Cc4ccc(F)cc4)cc32)[C@@H](CN2CCC(CN(C)C(=O)c3ccc(C(=O)N(C)CC4CCN(C[C@H]5CN[C@H](C)CN5CC(=O)N5CC(C)(C)c6[nH]c(=O)c(Cc7ccc(F)cc7)cc65)CC4)cc3)CC2)CN1 [Example 96, N^1,N^4-bis((1-(((2R,5R)-1-(2-(6-(4-fluorobenzyl)-3,3-dimethyl-5-oxo-2,3,4,5-tetrahydro-1H-pyrrolo[3,2-b]pyridin-1-yl)-2-oxoethyl)-5-methylpiperazin-2-yl)methyl)piperidin-4-yl)methyl)-N^1,N^4-dimethylterephthalamide] | 63.1 to 316 nM | – | 7.94 to 15.8 nM | ++++ (FS>10,000) | 1000 to 3160 nM | 1000 to 3160 nM | 1.38 to 7.94 nM | +++ (10,000>FS>1,000) | 7.94 to 15.8 nM | +++ (10,000>FS>1,000) | 10000 to 51300 nM |
| C[C@@H]1CN(CC(=O)N2CC(C)(C)c3[nH]c(=O)c(Cc4ccc(F)cc4)cc32)[C@@H](CN2CCO[C@H](COCC#CC#CCOC[C@@H]3CN(C[C@H]4CN[C@H](C)CN4CC(=O)N4CC(C)(C)c5[nH]c(=O)c(Cc6ccc(F)cc6)cc54)CCO3)C2)CN1 [Example 63, 1,1′-(2,2′-((3R,3′R,6R,6′R)-(((2S,2'S)-((hexa-2,4-diyne-1,6-diylbis(oxy))bis(methylene))bis(morpholine-2,4-diyl))bis(methylene))bis(3-methylpiperazine-6,1-diyl))bis(acetyl))bis(6-(4-fluorobenzyl)-3,3-dimethyl-1,2,3,4-tetrahydro-5H-pyrrolo[3,2-b]pyridin-5-one)] | 12.6 to 63.1 nM | – | 15.8 to 31.6 nM | – | 3160 to 10000 nM | 1000 to 3160 nM | 7.94 to 15.8 nM | – | 15.8 to 31.6 nM | – | 10000 to 51300 nM |
| C[C@@H]1CN(CC(=O)N2CC(C)(C)c3[nH]c(=O)c(Cc4ccc(F)cc4)cc32)[C@@H](CN2CCC[C@H](NC(=O)Cc3cccc(CC(=O)N[C@H]4CCCN(C[C@H]5CN[C@H](C)CN5CC(=O)N5CC(C)(C)c6[nH]c(=O)c(Cc7ccc(F)cc7)cc65)C4)c3)C2)CN1 [Example 41, 2,2′-(1,3-phenylene)bis(N-((S)-1-(((2R,5R)-1-(2-(6-(4-fluorobenzyl)-3,3-dimethyl-5-oxo-2,3,4,5-tetrahydro-1H-pyrrolo[3,2-b]pyridin-1-yl)-2-oxoethyl)-5-methylpiperazin-2-yl)methyl)piperidin-3-yl)acetamide)] | 316 to 3310 nM | – | 31.6 to 501 nM | +++ (10,000>FS>1,000) | 3160 to 10000 nM | 3160 to 10000 nM | 31.6 to 501 nM | +++ (10,000>FS>1,000) | 31.6 to 501 nM | +++ (10,000>FS>1,000) | 10000 to 51300 nM |
| C[C@@H]1CN(CC(=O)N2CC(C)(C)c3[nH]c(=O)c(Cc4ccc(F)cc4)cc32)[C@@H](CN2CCN(C(=O)CCCCCCCCC(=O)N3CCN(C[C@H]4CN[C@H](C)CN4CC(=O)N4CC(C)(C)c5[nH]c(=O)c(Cc6ccc(F)cc6)cc54)[C@H](C)C3)C[C@H]2C)CN1 [Example 3, 1,10-bis((R)-4-(((2R,5R)-1-(2-(6-(4-fluorobenzyl)-3,3-dimethyl-5-oxo-2,3,4,5-tetrahydro-1H-pyrrolo[3,2-b]pyridin-1-yl)-2-oxoethyl)-5-methylpiperazin-2-yl)methyl)-3-methylpiperazin-1-yl)decane-1,10-dione] | 12.6 to 63.1 nM | – | 31.6 to 501 nM | +++ (10,000>FS>1,000) | 1000 to 3160 nM | 22.4 to 1000 nM | 7.94 to 15.8 nM | ++ (1,000>FS>100) | 15.8 to 31.6 nM | ++ (1,000>FS>100) | 10000 to 51300 nM |
| C[C@@H]1CN(CC(=O)N2CC(C)(C)c3[nH]c(=O)c(Cc4ccc(F)cc4)cc32)[C@@H](CN2CCO[C@H](C(=O)NCC(O)CNC(=O)[C@@H]3CN(C[C@H]4CN[C@H](C)CN4CC(=O)N4CC(C)(C)c5[nH]c(=O)c(Cc6ccc(F)cc6)cc54)CCO3)C2)CN1 [Compound 137, (2S,2′S)-N,N′-(2-hydroxypropane-1,3-diyl)bis(4-(((2R,5R)-1-(2-(6-(4-fluorobenzyl)-3,3-dimethyl-5-oxo-2,3,4,5-tetrahydro-1H-pyrrolo[3,2-b]pyridin-1-yl)-2-oxoethyl)-5-methylpiperazin-2-yl)methyl)morpholine-2-carboxamide)] | 63.1 to 316 nM | 10000 to 51300 nM | 15.8 to 31.6 nM | ++++ (FS>10,000) | 1000 to 3160 nM | 1000 to 3160 nM | 7.94 to 15.8 nM | +++ (10,000>FS>1,000) | 7.94 to 15.8 nM | +++ (10,000>FS>1,000) | – |
| C[C@@H]1CN(CC(=O)N2CC(C)(C)c3[nH]c(=O)c(Cc4ccccc4)cc32)[C@@H](CN2CCO[C@H](C(=O)NCc3ccc(CNC(=O)[C@@H]4CN(C[C@H]5CN[C@H](C)CN5CC(=O)N5CC(C)(C)c6[nH]c(=O)c(Cc7ccccc7)cc65)CCO4)cc3)C2)CN1 [Compound 186, (2S,2′S)-N,N′-(1,4-phenylenebis(methylene)) bis(4-(((2R,5R)-1-(2-(6-benzyl-3,3-dimethyl-5-oxo-2,3,4,5-tetrahydro-1H-pyrrolo[3,2-b]pyridin-1-yl)-2-oxoethyl)-5-methylpiperazin-2-yl)methyl)morpholine-2-carboxamide)] | 12.6 to 63.1 nM | 10000 to 51300 nM | 15.8 to 31.6 nM | ++++ (FS>10,000) | 1000 to 3160 nM | 22.4 to 1000 nM | 7.94 to 15.8 nM | ++ (1,000>FS>100) | 1.38 to 7.94 nM | +++ (10,000>FS>1,000) | – |
| C[C@@H]1CN(CC(=O)N2CC(C)(C)c3[nH]c(=O)c(Cc4ccc(F)cc4)cc32)[C@@H](CN2CCC(CN(C)Cc3ccc(CN(C)CC4CCN(C[C@H]5CN[C@H](C)CN5CC(=O)N5CC(C)(C)c6[nH]c(=O)c(Cc7ccc(F)cc7)cc65)CC4)cc3)CC2)CN1 [Example 100, 1,1′-(2,2′-((3R,3′R,6R,6′R)-(((((1,4-phenylenebis(methylene))bis(methylazanediyl))bis(methylene))bis(piperidine-4,1-diyl))bis(methylene))bis(3-methylpiperazine-6,1-diyl))bis(acetyl))bis(6-(4-fluorobenzyl)-3,3-dimethyl-1,2,3,4-tetrahydro-5H-pyrrolo[3,2-b]pyridin-5-one)] | 0.49 to 12.6 nM | – | 15.8 to 31.6 nM | ++++ (FS>10,000) | 3160 to 10000 nM | 1000 to 3160 nM | 7.94 to 15.8 nM | +++ (10,000>FS>1,000) | 7.94 to 15.8 nM | +++ (10,000>FS>1,000) | 10000 to 51300 nM |

Reference: US20250326771A1, “PIPERAZINE DERIVATIVES USEFUL IN HIV THERAPY” (VIIV HEALTHCARE COMPANY, priority 2022, published 2025)
